These results are taken from US20250108070A1, “METHOD FOR REPROGRAMMING CD8+ T CELLS TO ENHANCE THEIR THERAPEUTIC POTENTIAL AND APPLICATIONS THEREOF” (INSTITUT PASTEUR, priority 2022, published 2025).

The subject of the test is human CD8+ T cells. The test can be described thus: Screening of GSK3 inhibitors: markers and memory phenotypes by flow cytometry. The format is cell-based. Conditions: FIG. 12B, in words. The protocol: FIG. 12. Screening molecules for reprogramming human CD8^+ T cells Total CD8^+ T cells were purified and treated for 12 hs with titrated doses of GSK3 inhibitors or DMSO vehicle control. After drug washout, cells were stimulated for 48 hs with plate-bound anti-CD3/anti-CD28 antibodies (at 1 mg/mL), followed by flow cytometry analyses. A. Upon stimulation, intracellular cytokine and phospho-protein staining was performed, the latter for the detection of phospho-S6 and phospho-AKT proteins (indicative of activation of mTORC1 and mTORC2 pathways, respectively). The fold change in the frequency of IFN-γ^+TNF-α^+ and pS6^+pAKT^+ cells induced by the treatment with each GSK3 inhibitor, relative to DMSO control, was analyzed. […] B. Fold change in the expression of the indicated markers and memory phenotypes induced by anti-CD3/anti-CD28 antibody stimulation relative to unstimulated cells (at least 3 donors per condition). TCM: T central memory; TEM: T effector memory; TTM: T transitional memory; TTE: T terminal effector; TSCM: T stem cell memory.
For reprogramming of CD8^+ T cells followed by polyclonal stimulation, cells were isolated by negative magnetic bead sorting (Stemcell Technologies). For reprogramming of CD8^+ T cells followed by antigen-specific stimulation, PBMC and magnetically separated CD8^+ T cells and non-CD8^+ T cells were used (REAlease® CD8 MicroBead Kit; Miltenyi Biotech). Then, CD8^+ T cells were treated with a GSK3 inhibitor (6-Bromoindirubin-3′-oxime; BIO; Sigma-Aldrich), at 3 μM, or an equivalent concentration of dimethyl sulfoxide (DMSO) vehicle control, in complete medium, for 12 hs at 37° C., 5% CO2. Non-CD8 cells were left resting during this time in complete medium. CD8^+ T cells were washed with complete medium and stimulated with the peptide pool in presence of non-CD8 T cells.
In some experiments, cells were culture in RPMI medium without glucose (MP Biomedicals). CD8^+ T cell proliferation was evaluated by CFSE dilution (at 1 μM, Thermo Fisher Scientific). In additional experiments, reprogrammed CD8^+ T cells were stimulated with IL-7 or IL-15 (both at 10 ng/mL; R&D) and cultured for 6 days. In all the cases, cells were cultured at a density of 2×10^6 cells/mL.
After cultures, cells were stained with the LIVE/DEAD Fixable Aqua Dead Cell Stain kit (Thermo Fisher Scientific), with anti-CD3 Alexa Fluor 700 or APC efluor 780 and anti-CD8 PE Texas Red antibodies, accordingly. […] In some experiments, cells were stained with APC-conjugated dextramers (Immudex), incubated for 15 minutes at room temperature. Additional surface staining panels included anti-HLA-DR Superbright 780, anti-CD38 Superbright 600, anti-PD-1 BV421, anti-LAG-3 APC efluor 780, anti-TIM3 PE Cy7, and anti-TIGIT BV786 antibodies, or anti-CD122 PE and anti-CD215 FITC antibodies. The BD Transcription Factor Buffer Set kit (BD Biosciences) was used for cell fixation and permeabilization. […] Cell acquisition was performed using LSR II or ARIA III flow cytometers (both from BD Biosciences), and data were analyzed with FlowJo v.10 software (BD Biosciences).
Background: In flow cytometry, cells or beads pass a laser one at a time.

Regarding `O=C1Nc2cc(Br)ccc2/C1=C1/Nc2ccccc2/C1=N\O` [BIO, 6-bromoindirubin-3′-oxime], the “CD127+ T-bet− phenotype” value is given as “preserved”; the “acquisition of T-bet, HLA-DR and CD38, PD-1 and LAG-3” value is given as “restrained”; the “phenotype / profile promoted in CD8+ T cells” value is listed as “promoted a less-differentiated phenotype”.
